This note sets out measurements from patent publication US11331369B2, “Endoparasitic depsipeptides” (Zoetis Services LLC, priority 2017, dated 2022).

Each structure is given as a SMILES string.

This assay deals with microfilariae of Dirofilaria immitis. In words: Dirofilaria immitis, Microfilaria (DiMF) In vitro Assay. The assay is classed as cell-based. Particulars: 72 h, read-out: DiMF Minimum Effective Dose (MED), approximately 72 hours incubation, microfilariae assessed for survival or paralysis.
`CCOc1cc(C2CC2)nn1Cc1ccc(C[C@H]2OC(=O)[C@H](CC(C)C)N(C)C(=O)[C@@H](C)OC(=O)[C@H](CC(C)C)N(C)C(=O)[C@@H](Cc3ccc(Cn4nc(C5CC5)cc4OCC)cc3)OC(=O)[C@H](CC(C)C)N(C)C(=O)[C@@H](C)OC(=O)[C@H](CC(C)C)N(C)C2=O)cc1` [Example 1b-170, (3S,6R,9S,12R,15S,18R,21S,24R)-6,18-bis(4-((3-cyclopropyl-5-ethoxy-1H-pyrazol-1-yl)methyl)benzyl)-3,9,15,21-tetraisobutyl-4,10,12,16,22,24-hexamethyl-1,7,13,19-tetraoxa-4,10,16,22-tetraazacyclotetracosan-2,5,8,11,14,17,20,23-octaone]: the minimal effective concentration is 0.01 to 0.1 µM.

For `CC(C)C[C@H]1C(=O)O[C@H](Cc2cccc(Cn3ccnc3CO)c2)C(=O)N(C)[C@@H](CC(C)C)C(=O)O[C@H](C)C(=O)N(C)[C@@H](CC(C)C)C(=O)O[C@H](Cc2ccc(Cn3ccnc3CO)cc2)C(=O)N(C)[C@@H](CC(C)C)C(=O)O[C@H](C)C(=O)N1C` [Example 7-11, (3S,6R,9S,12R,15S,18R,21S,24R)-6-(3-((2-(hydroxymethyl)-1H-imidazol-1-yl)methyl)benzyl)-18-(4-((2-(hydroxymethyl)-1H-imidazol-1-yl)methyl)benzyl)-3,9,15,21-tetraisobutyl-4,10,12,16,22,24-hexamethyl-1,7,13,19-tetraoxa-4,10,16,22-tetraazacyclotetracosan-2,5,8,11,14,17,20,23-octaone], the minimal effective concentration lay within 0.01 to 0.1 µM.

For the compound `CC(C)C[C@H]1C(=O)O[C@H](Cc2ccc(Cn3ncc4cccnc43)cc2)C(=O)N(C)[C@@H](CC(C)C)C(=O)O[C@H](C)C(=O)N(C)[C@@H](CC(C)C)C(=O)O[C@H](Cc2ccc(Cn3ncc4cccnc43)cc2)C(=O)N(C)[C@@H](CC(C)C)C(=O)O[C@H](C)C(=O)N1C` [Example 9-49, (3S,6R,9S,12R,15S,18R,21S,24R)-6,18-bis(4-((1H-pyrazolo[3,4-b]pyridin-1-yl)methyl)benzyl)-3,9,15,21-tetraisobutyl-4,10,12,16,22,24-hexamethyl-1,7,13,19-tetraoxa-4,10,16,22-tetraazacyclotetracosan-2,5,8,11,14,17,20,23-octaone], the minimal effective concentration lay in the range of 0.001 to 0.01 µM.

`CC(C)C[C@H]1C(=O)O[C@H](Cc2ccc(Cn3cc(S(=O)(=O)N4CCCC4)cn3)cc2)C(=O)N(C)[C@@H](CC(C)C)C(=O)O[C@H](C)C(=O)N(C)[C@@H](CC(C)C)C(=O)O[C@H](Cc2ccc(Cn3cc(S(=O)(=O)N4CCCC4)cn3)cc2)C(=O)N(C)[C@@H](CC(C)C)C(=O)O[C@H](C)C(=O)N1C` [Example 1b-54, (3S,6R,9S,12R,15S,18R,21S,24R)-3,9,15,21-tetraisobutyl-4,6,10,16,18,22-hexamethyl-12,24-bis(4-((4-(pyrrolidin-1-ylsulfonyl)-1H-pyrazol-1-yl)methyl)benzyl)-1,7,13,19-tetraoxa-4,10,16,22-tetraazacyclotetracosan-2,5,8,11,14,17,20,23-octaone]: the minimal effective concentration fell in the range of 0.01 to 0.1 µM.

As for `Cc1cnn(Cc2ccc(C[C@H]3OC(=O)[C@H](CC(C)C)N(C)C(=O)[C@@H](C)OC(=O)[C@H](CC(C)C)N(C)C(=O)[C@@H](Cc4ccc(Cn5ccc(C(F)(F)F)n5)cc4)OC(=O)[C@H](CC(C)C)N(C)C(=O)[C@@H](C)OC(=O)[C@H](CC(C)C)N(C)C3=O)cc2)c1` [Example 1a-29, (3S,6R,9S,12R,15S,18R,21S,24R)-3,9,15,21-tetraisobutyl-4,6,10,16,18,22-hexamethyl-12-(4-((4-methyl-1H-pyrazol-1-yl)methyl)benzyl)-24-(4-((3-(trifluoromethyl)-1H-pyrazol-1-yl)methyl)benzyl)-1,7,13,19-tetraoxa-4,10,16,22-tetraazacyclotetracosan-2,5,8,11,14,17,20,23-octaone], the minimal effective concentration was in the range of 0.01 to 0.1 µM.

Take `CC(C)C[C@H]1C(=O)O[C@H](Cc2ccc(Cn3cc(-c4cn(C)nn4)cn3)cc2)C(=O)N(C)[C@@H](CC(C)C)C(=O)O[C@H](C)C(=O)N(C)[C@@H](CC(C)C)C(=O)O[C@H](Cc2ccccc2)C(=O)N(C)[C@@H](CC(C)C)C(=O)O[C@H](C)C(=O)N1C` [Example 2-84, (3S,6R,9S,12R,15S,18R,21S,24R)-6-benzyl-3,9,15,21-tetraisobutyl-4,10,12,16,22,24-hexamethyl-18-(4-((4-(1-methyl-1H-1,2,3-triazol-4-yl)-1H-pyrazol-1-yl)methyl)benzyl)-1,7,13,19-tetraoxa-4,10,16,22-tetraazacyclotetracosan-2,5,8,11,14,17,20,23-octaone]: the minimal effective concentration was 0.01 to 0.1 µM.

For the compound `COc1ccc(OCc2cn(Cc3ccc(C[C@H]4OC(=O)[C@H](CC(C)C)N(C)C(=O)[C@@H](C)OC(=O)[C@H](CC(C)C)N(C)C(=O)[C@@H](Cc5ccccc5)OC(=O)[C@H](CC(C)C)N(C)C(=O)[C@@H](C)OC(=O)[C@H](CC(C)C)N(C)C4=O)cc3)nn2)cc1` [Example 10-22, (3S,6R,9S,12R,15S,18R,21S,24R)-6-benzyl-3,9,15,21-tetraisobutyl-18-(4-((4-((4-methoxyphenoxy)methyl)-1H-1,2,3-triazol-1-yl)methyl)benzyl)-4,10,12,16,22,24-hexamethyl-1,7,13,19-tetraoxa-4,10,16,22-tetraazacyclotetracosan-2,5,8,11,14,17,20,23-octaone], the minimal effective concentration was in the range of 0.01 to 0.1 µM.

Turning to `CNC(=O)c1cnn(Cc2ccc(C[C@H]3OC(=O)[C@H](CC(C)C)N(C)C(=O)[C@@H](C)OC(=O)[C@H](CC(C)C)N(C)C(=O)[C@@H](Cc4ccc(Cn5cc(C(=O)NC)cn5)cc4)OC(=O)[C@H](CC(C)C)N(C)C(=O)[C@@H](C)OC(=O)[C@H](CC(C)C)N(C)C3=O)cc2)c1` [Example 1b-53, 1,1′-(((((2R,5S,8R,11 S,14R,17S,20R,23S)-5,11,17,23-tetraisobutyl-4,8,10,16,20,22-hexamethyl-3,6,9,12,15,18,21,24-octaoxo-1,7,13,19-tetraoxa-4,10,16,22-tetraazacyclotetracosane-2,14-diyl)bis(methylene))bis(4,1-phenylene))bis(methylene))bis(N-methyl-1H-pyrazole-4-carboxamide)], the minimal effective concentration lay within 0.01 to 0.1 µM.

For the compound `CC(C)C[C@H]1C(=O)O[C@H](Cc2ccc(Cn3cc4c(n3)CN(C)C4)cc2)C(=O)N(C)[C@@H](CC(C)C)C(=O)O[C@H](C)C(=O)N(C)[C@@H](CC(C)C)C(=O)O[C@H](Cc2ccccc2)C(=O)N(C)[C@@H](CC(C)C)C(=O)O[C@H](C)C(=O)N1C` [Example 10-32, (3S,6R,9S,12R,15S,18R,21S,24R)-6-benzyl-3,9,15,21-tetraisobutyl-4,10,12,16,22,24-hexamethyl-18-(4-((5-methyl-5,6-dihydropyrrolo[3,4-c]pyrazol-2(4H)-yl)methyl)benzyl)-1,7,13,19-tetraoxa-4,10,16,22-tetraazacyclotetracosan-2,5,8,11,14,17,20,23-octaone], the minimal effective concentration lay in the range of 0.01 to 0.1 µM.

As to `CC(C)C[C@H]1C(=O)O[C@H](Cc2ccc(Cn3ccc(OC(F)F)n3)cc2)C(=O)N(C)[C@@H](CC(C)C)C(=O)O[C@H](C)C(=O)N(C)[C@@H](CC(C)C)C(=O)O[C@H](Cc2ccc(Cn3ccc(OC(F)F)n3)cc2)C(=O)N(C)[C@@H](CC(C)C)C(=O)O[C@H](C)C(=O)N1C` [Example 1b-156, (3S,6R,9S,12R,15S,18R,21S,24R)-6,18-bis(4-((3-(difluoromethoxy)-1H-pyrazol-1-yl)methyl)benzyl)-3,9,15,21-tetraisobutyl-4,10,12,16,22,24-hexamethyl-1,7,13,19-tetraoxa-4,10,16,22-tetraazacyclotetracosan-2,5,8,11,14,17,20,23-octaone], the minimal effective concentration was in the range of 0.01 to 0.1 µM.

As for `CCCc1cnn(Cc2ccc(C[C@H]3OC(=O)[C@H](CC(C)C)N(C)C(=O)[C@@H](C)OC(=O)[C@H](CC(C)C)N(C)C(=O)[C@@H](Cc4ccccc4)OC(=O)[C@H](CC(C)C)N(C)C(=O)[C@@H](C)OC(=O)[C@H](CC(C)C)N(C)C3=O)cc2)c1` [Example 2-26, (3S,6R,9S,12R,15S,18R,21S,24R)-6-benzyl-3,9,15,21-tetraisobutyl-4,10,12,16,22,24-hexamethyl-18-(4-((4-propyl-1H-pyrazol-1-yl)methyl)benzyl)-1,7,13,19-tetraoxa-4,10,16,22-tetraazacyclotetracosan-2,5,8,11,14,17,20,23-octaone], the minimal effective concentration was in the range of 0.01 to 0.1 µM.

For the compound `Cc1nn(Cc2ccc(C[C@H]3OC(=O)[C@H](CC(C)C)N(C)C(=O)[C@@H](C)OC(=O)[C@H](CC(C)C)N(C)C(=O)[C@@H](Cc4ccc(Cn5nc(C)c(OC(C)C)c5C)cc4)OC(=O)[C@H](CC(C)C)N(C)C(=O)[C@@H](C)OC(=O)[C@H](CC(C)C)N(C)C3=O)cc2)c(C)c1OC(C)C` [Example 1b-188, (3S,6R,9S,12R,15S,18R,21S,24R)-3,9,15,21-tetraisobutyl-6,18-bis(4-((4-isopropoxy-3,5-dimethyl-1H-pyrazol-1-yl)methyl)benzyl)-4,10,12,16,22,24-hexamethyl-1,7,13,19-tetraoxa-4,10,16,22-tetraazacyclotetracosan-2,5,8,11,14,17,20,23-octaone], the minimal effective concentration is 0.01 to 0.1 µM.

Take `CC(C)C[C@H]1C(=O)O[C@H](Cc2ccc(Cn3ccnc3I)cc2)C(=O)N(C)[C@@H](CC(C)C)C(=O)O[C@H](C)C(=O)N(C)[C@@H](CC(C)C)C(=O)O[C@H](Cc2ccccc2)C(=O)N(C)[C@@H](CC(C)C)C(=O)O[C@H](C)C(=O)N1C` [Example 8-10, (3S,6R,9S,12R,15S,18R,21S,24R)-6-benzyl-18-(4-((2-iodo-1H-imidazol-1-yl)methyl)benzyl)-3,9,15,21-tetraisobutyl-4,10,12,16,22,24-hexamethyl-1,7,13,19-tetraoxa-4,10,16,22-tetraazacyclotetracosan-2,5,8,11,14,17,20,23-octaone]: the minimal effective concentration fell in the range of 0.01 to 0.1 µM.

`CC(C)C[C@H]1C(=O)O[C@H](Cc2ccc(Cn3ccnc3)cc2)C(=O)N(C)[C@@H](CC(C)C)C(=O)O[C@H](C)C(=O)N(C)[C@@H](CC(C)C)C(=O)O[C@H](Cc2ccccc2)C(=O)N(C)[C@@H](CC(C)C)C(=O)O[C@H](C)C(=O)N1C` [Example 8-2, (3S,6R,9S,12R,15S,18R,21S,24R)-6-benzyl-18-[[4-(imidazol-1-ylmethyl)phenyl]methyl]-3,9,15,21-tetraisobutyl-4,10,12,16,22,24-hexamethyl-1,7,13,19-tetraoxa-4,10,16,22-tetrazacyclotetracosane-2,5,8,11,14,17,20,23-octaone]: the minimal effective concentration was 0.01 to 0.1 µM.
